Results reported in ChEMBL document CHEMBL1201862, “PubChem BioAssay data set” (2004).
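Step 1: Grow cells in 96-well plates. Step 2: Expose to compound for 48 hours at 5 concentrations. Step 3: Interpolate endpoints linearly; if unreached, use highest concentration. GI50 marks 50% less growth.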 Calls of active or inactive are those of the source. Rule as the data show it: active = GI50 up to about 1.1 µM and inactive = higher.

How the values were obtained:
Test in all cases: NCI anticancer screen, dose series, 48 h
ACHN = system: ACHN
COLO 205 = system: COLO 205
OVCAR-3 = system: OVCAR-3
MDA-MB-435 = system: MDA-MB-435
RPMI-8226 = system: RPMI-8226
NCI-H522 = system: NCI-H522
CCRF-CEM = system: CCRF-CEM
SW-620 = system: SW-620
A549 = system: A549
HOP-62 = system: HOP-62
EKVX = system: EKVX
Malme-3M = system: Malme-3M
RXF 393 = system: RXF 393
786-0 = system: 786-0
SNB-75 = system: SNB-75
K562 = system: K562
NCI-H226 = system: NCI-H226
MCF7 = system: MCF7
OVCAR-8 = system: OVCAR-8
HCT-15 = system: HCT-15
SF-295 = system: SF-295
IGROV-1 = system: IGROV-1
DU-145 = system: DU-145
PC-3 = system: PC-3
SK-MEL-2 = system: SK-MEL-2
UACC-62 = system: UACC-62
HT-29 = system: HT-29
MDA-N = system: MDA-N
SF-268 = system: SF-268
UACC-257 = system: UACC-257
HCT-116 = system: HCT-116
SK-OV-3 = system: SK-OV-3
LOX IMVI = system: LOX IMVI
SR = system: SR
NCI-H23 = system: NCI-H23
M14 = system: M14
CAKI-1 = system: CAKI-1
MDA-MB-231 = system: MDA-MB-231
SF-539 = system: SF-539
KM12 = system: KM12
NCI/ADR-RES = system: NCI/ADR-RES
HL-60 = system: HL-60
SN12C = system: SN12C
SNB-19 = system: SNB-19
SK-MEL-5 = system: SK-MEL-5
SK-MEL-28 = system: SK-MEL-28
OVCAR-5 = system: OVCAR-5
Hs-578T = system: Hs-578T
BT-549 = system: BT-549
NCI-H460 = system: NCI-H460
UO-31 = system: UO-31
U-251 = system: U-251
OVCAR-4 = system: OVCAR-4
TK-10 = system: TK-10
MOLT-4 = system: MOLT-4
A498 = system: A498
T47D = system: T47D
HCC 2998 = system: HCC 2998
HOP-92 = system: HOP-92

SMILES: O=C(O)c1ccn(-c2cccc(-n3ccc(C(=O)O)n3)n2)n1
- GI50 (ACHN): > 100 µM (inactive)
- GI50 (COLO 205): > 100 µM (inactive)
- GI50 (OVCAR-3): > 100 µM (inactive)
- GI50 (MDA-MB-435): > 100 µM (inactive)
- GI50 (RPMI-8226): > 100 µM (inactive)
- GI50 (NCI-H522): > 100 µM (inactive)
- GI50 (CCRF-CEM): > 100 µM (inactive)
- GI50 (SW-620): > 100 µM (inactive)
- GI50 (A549): > 100 µM (inactive)
- GI50 (HOP-62): > 100 µM (inactive)
- GI50 (EKVX): > 100 µM (inactive)
- GI50 (Malme-3M): > 100 µM (inactive)
- GI50 (RXF 393): > 100 µM (inactive)
- GI50 (786-0): > 100 µM (inactive)
- GI50 (SNB-75): > 100 µM (inactive)
- GI50 (K562): > 100 µM (inactive)
- GI50 (NCI-H226): > 100 µM (inactive)
- GI50 (MCF7): > 100 µM (inactive)
- GI50 (OVCAR-8): > 100 µM (inactive)
- GI50 (HCT-15): > 100 µM
- GI50 (SF-295): > 100 µM (inactive)
- GI50 (IGROV-1): > 100 µM (inactive)
- GI50 (DU-145): > 100 µM (inactive)
- GI50 (PC-3): > 100 µM (inactive)
- GI50 (SK-MEL-2): > 100 µM (inactive)
- GI50 (UACC-62): > 100 µM (inactive)
- GI50 (HT-29): > 100 µM (inactive)
- GI50 (MDA-N): > 100 µM (inactive)
- GI50 (SF-268): > 100 µM (inactive)
- GI50 (UACC-257): > 100 µM (inactive)
- GI50 (HCT-116): > 100 µM (inactive)
- GI50 (SK-OV-3): > 100 µM (inactive)
- GI50 (LOX IMVI): > 100 µM (inactive)
- GI50 (SR): > 100 µM (inactive)
- GI50 (NCI-H23): > 100 µM (inactive)
- GI50 (M14): > 100 µM (inactive)
- GI50 (CAKI-1): > 100 µM (inactive)
- GI50 (MDA-MB-231): > 100 µM (inactive)
- GI50 (SF-539): > 100 µM (inactive)
- GI50 (KM12): > 100 µM (inactive)
- GI50 (NCI/ADR-RES): > 100 µM (inactive)
- GI50 (HL-60): > 100 µM (inactive)
- GI50 (SN12C): > 100 µM (inactive)
- GI50 (SNB-19): > 100 µM (inactive)
- GI50 (SK-MEL-5): > 100 µM (inactive)
- GI50 (SK-MEL-28): > 100 µM (inactive)
- GI50 (OVCAR-5): > 100 µM (inactive)
- GI50 (Hs-578T): > 100 µM (inactive)
- GI50 (BT-549): > 100 µM (inactive)
- GI50 (NCI-H460): > 100 µM (inactive)
- GI50 (UO-31): > 100 µM (inactive)
- GI50 (U-251): > 100 µM (inactive)
- GI50 (OVCAR-4): > 100 µM (inactive)
- GI50 (TK-10): > 100 µM (inactive)
- GI50 (MOLT-4): > 100 µM (inactive)

SMILES: CCCCCCCCCCCCCCCCCCNc1ccn(C2OC(COP(=O)(O)OC3CC(n4cc(F)c(=O)[nH]c4=O)OC3COP(=O)(O)OCC3OC(n4ccc(N)nc4=O)C(O)C3O)C(O)C2O)c(=O)n1 (configuration not stated)
- GI50 (ACHN): 0.143 µM (active)
- GI50 (COLO 205): 8.17 µM (inactive)
- GI50 (OVCAR-3): 30.5 µM (inactive)
- GI50 (A498): 20.8 µM (inactive)
- GI50 (MDA-MB-435): 8.18 µM (inactive)
- GI50 (RPMI-8226): 14.9 µM (inactive)
- GI50 (NCI-H522): 13 µM (inactive)
- GI50 (CCRF-CEM): 0.0206 µM (active)
- GI50 (SW-620): 16.2 µM (inactive)
- GI50 (A549): 0.0906 µM (active)
- GI50 (HOP-62): 10.4 µM (inactive)
- GI50 (EKVX): 32 µM (inactive)
- GI50 (Malme-3M): > 46.9 µM (inactive)
- GI50 (RXF 393): 16 µM (inactive)
- GI50 (T47D): 24.5 µM (inactive)
- GI50 (786-0): 1.31 µM (inactive)
- GI50 (SNB-75): 38.6 µM (inactive)
- GI50 (K562): 16.6 µM (inactive)
- GI50 (NCI-H226): > 24 µM (inactive)
- GI50 (MCF7): 0.276 µM (active)
- GI50 (OVCAR-8): 3.1 µM (inactive)
- GI50 (HCT-15): 12.2 µM
- GI50 (SF-295): 0.413 µM (active)
- GI50 (IGROV-1): 15.2 µM (inactive)
- GI50 (DU-145): 1.08 µM (active)
- GI50 (PC-3): 7.14 µM (inactive)
- GI50 (SK-MEL-2): 18.1 µM (inactive)
- GI50 (UACC-62): 1.1 µM (active)
- GI50 (HT-29): 13.7 µM (inactive)
- GI50 (UACC-257): 22.6 µM (inactive)
- GI50 (HCC 2998): 2.35 µM (inactive)
- GI50 (HCT-116): 1.03 µM (active)
- GI50 (SK-OV-3): 19.9 µM (inactive)
- GI50 (LOX IMVI): 0.139 µM (active)
- GI50 (SR): 0.407 µM (active)
- GI50 (NCI-H23): 2.92 µM (inactive)
- GI50 (HOP-92): > 60.4 µM (inactive)
- GI50 (M14): 0.453 µM (active)
- GI50 (CAKI-1): 4.47 µM (inactive)
- GI50 (MDA-MB-231): 26.2 µM (inactive)
- GI50 (SF-539): < 0.01 µM (active)
- GI50 (KM12): 14.4 µM (inactive)
- GI50 (NCI/ADR-RES): 14.5 µM (inactive)
- GI50 (HL-60): 0.26 µM (active)
- GI50 (SN12C): 15.8 µM (inactive)
- GI50 (SNB-19): 9.2 µM (inactive)
- GI50 (SK-MEL-5): 3.62 µM (inactive)
- GI50 (SK-MEL-28): 24.7 µM (inactive)
- GI50 (OVCAR-5): 36.5 µM (inactive)
- GI50 (Hs-578T): > 67.8 µM (inactive)
- GI50 (BT-549): 15.1 µM (inactive)
- GI50 (NCI-H460): < 0.0129 µM (active)
- GI50 (UO-31): 11.5 µM (inactive)
- GI50 (U-251): 7.67 µM (inactive)
- GI50 (OVCAR-4): 41.7 µM (inactive)
- GI50 (TK-10): 2.56 µM (inactive)
- GI50 (MOLT-4): 0.611 µM (active)

SMILES: NC1=NC(=O)[C@H](Cc2c[nH]c3ccccc23)N1C(=O)OCc1ccccc1
- GI50 (ACHN): > 100 µM (inactive)
- GI50 (COLO 205): > 100 µM (inactive)
- GI50 (OVCAR-3): 59.7 µM (inactive)
- GI50 (A498): 61 µM (inactive)
- GI50 (MDA-MB-435): 56.9 µM (inactive)
- GI50 (NCI-H522): 37 µM (inactive)
- GI50 (SW-620): > 100 µM (inactive)
- GI50 (HOP-62): > 100 µM (inactive)
- GI50 (EKVX): 45.3 µM (inactive)
- GI50 (Malme-3M): 68.7 µM (inactive)
- GI50 (RXF 393): 45.2 µM (inactive)
- GI50 (786-0): > 100 µM (inactive)
- GI50 (SNB-75): 50.9 µM (inactive)
- GI50 (K562): 30.8 µM (inactive)
- GI50 (NCI-H226): 84.5 µM (inactive)
- GI50 (MCF7): 81.8 µM (inactive)
- GI50 (OVCAR-8): 46 µM (inactive)
- GI50 (HCT-15): > 100 µM
- GI50 (SF-295): 75.3 µM (inactive)
- GI50 (IGROV-1): 77.6 µM (inactive)
- GI50 (DU-145): 93.8 µM (inactive)
- GI50 (PC-3): 46 µM (inactive)
- GI50 (SK-MEL-2): > 100 µM (inactive)
- GI50 (UACC-62): 53.8 µM (inactive)
- GI50 (HT-29): > 100 µM (inactive)
- GI50 (MDA-N): > 100 µM (inactive)
- GI50 (SF-268): 73.8 µM (inactive)
- GI50 (UACC-257): 49.3 µM (inactive)
- GI50 (HCC 2998): > 100 µM (inactive)
- GI50 (HCT-116): 57.9 µM (inactive)
- GI50 (LOX IMVI): 68.5 µM (inactive)
- GI50 (NCI-H23): 38.1 µM (inactive)
- GI50 (CAKI-1): > 100 µM (inactive)
- GI50 (MDA-MB-231): > 100 µM (inactive)
- GI50 (KM12): > 100 µM (inactive)
- GI50 (NCI/ADR-RES): > 100 µM (inactive)
- GI50 (HL-60): 31.7 µM (inactive)
- GI50 (SN12C): 91 µM (inactive)
- GI50 (SNB-19): > 100 µM (inactive)
- GI50 (SK-MEL-5): 40.3 µM (inactive)
- GI50 (SK-MEL-28): < 0.01 µM (active)
- GI50 (OVCAR-5): > 100 µM (inactive)
- GI50 (Hs-578T): 44.9 µM (inactive)
- GI50 (BT-549): 38.5 µM (inactive)
- GI50 (NCI-H460): 93.8 µM (inactive)
- GI50 (UO-31): 38.1 µM (inactive)
- GI50 (U-251): 69.7 µM (inactive)
- GI50 (OVCAR-4): 51.8 µM (inactive)
- GI50 (TK-10): > 100 µM (inactive)
- GI50 (MOLT-4): 28.7 µM (inactive)
